From patent publication US20060275873A1, “Autoinducer compound to improve the productivity of natamycin streptomyces strains” (priority 2003, published 2006)
“Also recorded” adds a separate entry of the source.

Columns and labels:
[1] = tested on: Streptomyces natalensis npi287; assay: Inducer bioassay: induction of natamycin production in mutant npi287 on solid SPG medium, read as inhibition zone in a Candida utilis overlay; format: cell-based; conditions: for inducing activity on natamycin production by npi287: bioassay, Streptomyces natalensis npi287
Method: Dose-response representation is obtained from measuring points at 0, 110, 166, 220, 333, 446 and 500 nM of IP factor. Y-axis: natamycin-induced inhibition zone diameter in Candida utilis overlays in cm (see Example 5); x-axis: concentration of IP factor in nM.
The biological activity of IP factor was determined by its ability to induce natamycin production by mutant strain Streptomyces natalensis npi287 in solid SPG medium. After allowing growth of Streptomyces natalensis npi287 for 2 days at 30° C., samples of culture broths […] or different fractions from IP factor purification were added to wells (7 mm diameter) in the agar layer. The plate was overlaid with a culture of Candida utilis and incubated for 24 h at 28° C. The increment of the diameter of the natamycin inhibition zone after induction of natamycin in strain npi287 was proportional to the amount of IP factor in the sample.
The availability of the pure IP factor made it possible to quantify its inducing effect using the standard inducer assay with the npi287 strain (FIG. 2). […] The IP factor increased two-fold the diameter of natamycin inhibition zone (to above 50 millimeters) at concentration of 350 nM and the assay was saturated at concentrations above 400 nM. A threshold level of IP factor of about 50 nM was always required to detect the induction of natamycin production.

Streptomyces griseus HH1 [2] = assay: Restoration of streptomycin production in the A factor negative strain; format: cell-based; conditions: HPLC-pure IP factor, Streptomyces griseus HH1 mutant
Text: In the examples given below, the following strains were used: The wild type Streptomyces natalensis ATCC 27448 was used as the parental strain to isolate different npi mutants. Streptomyces natalensis cultures were maintained in solid TBO sporulation medium (containing 20 g tomato paste per liter; 25 g oat meal per liter; and 25 g agar per liter) as described by Aparicio et al. (Chem. Biol. 7, 895-905, 2000). Candida utilis CECT 1061 (synonym Pichia jadinii) was used as test strain in the bioassay of the antifungal activity of natamycin. Cultures of Streptomyces griseus IFO 13350 (formerly described as Streptomyces bikiniensis IFO 13350) were used to produce A factor in YMPG medium (Horinouchi et al., J. Antibiot. 38, 636-641, 1985). Streptomyces griseus HH1 (an A factor negative strain) was used to quantify the A factor inducing activity.
The Streptomyces griseus 35570 A factor was purified by following its biological activity on the test strain Streptomyces griseus HH1, a mutant lacking streptomycin production due to its deficiency in A factor biosynthesis.

[3] = tested on: Streptomyces natalensis (wild type and npi287 mutant); assay: Stimulation of sporulation of Streptomyces natalensis; format: cell-based
[4] = tested on: Streptomyces natalensis ATCC 27448; assay: Natamycin production in liquid cultures of the wild type strain with exogenous auto inducer; format: cell-based; conditions: 300 nM
Text: FIG. 3A: Cell dry weight (▪); y-axis: dry weight concentration in mg/ml; x-axis: time in hours. FIG. 3B: (▴) Control without IP factor addition; (O) with IP factor addition; y-axis: natamycin concentration in μg/ml; x-axis: time in hours.
FIG. 4A: Cell dry weight (♦); y-axis: dry weight concentration in mg/ml; x-axis: time in hours. FIG. 4B: (▪) Control without IP factor addition; (□) with IP factor addition; y-axis: natamycin concentration in μg/ml; x-axis: time in hours.
FIG. 5A: Cell dry weight (▴); y-axis: dry weight concentration in mg/ml; x-axis: time in hours. FIG. 5B: (▪) Control without IP factor addition; (□) with IP factor addition; y-axis: natamycin concentration in μg/ml; x-axis: time in hours.
Four different complex media were used for quantification of the IP factor concentration and its relationship to natamycin production. These include: NBG medium (OXOID) supplemented with glucose (5 g/l); YEME medium (yeast extract 3 g/l; peptone […]; malt extract 3 g/l and glucose 10 g/l); TSB medium (DIFCO) and YED medium (yeast extract 10 g/l; glucose 10 g/l). In addition two defined media were also used to quantify the inducer production: Streptomyces MM (Kieser et al. in “Practical Streptomyces Genetics”, John Innes Foundation, Norwich, UK, 2000) and Lechevalier defined medium (Martin and McDaniel, Eur. J. Appl. Microbiol. 3, 135-144, 1976).
The production of natamycin in liquid cultures was routinely quantified by spectrophotometric determination at 319 nm. A 0.5 ml aliquot of the culture was extracted with 5 ml of methanol and diluted with distilled water; the concentration of natamycin was quantified as described previously (Aparicio et al. (Chem. Biol. 7, 895-905, 2000)) using a pure sample of natamycin (Sigma Chem. Co) as standard.

[5] = Solvent extraction of clarified culture broth (partition between organic and aqueous phase); format: physicochemical
Method: The culture broth (15 liters) from Streptomyces natalensis wild type strain grown for 24 h in YED medium in a Braun Biostat C fermentor was concentrated 10-fold in a vacuum evaporator. The concentrated broth was clarified by precipitating the proteins with 6M HCl at pH 3.0 in the cold room. The clarified broth was adjusted to pH 7.0 with concentrated NaOH and extracted. […] Enough IP factor could be extracted by repeated extractions with ethyl acetate to allow a good purification. The organic phases were then collected and concentrated to dryness under vacuum and the resultant product was dissolved in 100 ml of 10% methanol (v/v) and applied to an active carbon column (30×3 cm) previously equilibrated with the same solvent (10% methanol, v/v). The retained compounds including the IP factor were fractionated by stepwise elution (flow 2 ml/min) with 50% methanol (v/v), 100% methanol, 10% ethyl acetate in methanol (v/v), 50% ethyl acetate in methanol (v/v), and pure ethyl acetate (100%). […] The IP factor-containing fraction was then concentrated, applied onto a Sephadex GIO column (2000×1 cm) and eluted with distilled water (flow 0.8 ml/min). This size exclusion chromatography yielded 40 ml of active fractions.

Streptomyces griseus HH1 [6] = conditions: stated as well-known; cited from earlier work

Row | Compound | diameter of natamycin inhibition zone ([1]; 350 nM IP factor) | fold increase of the diameter of natamycin inhibition zone ([1]; 350 nM IP factor) | inducing activity on natamycin production by npi287 [1] | threshold level required to detect induction of natamycin production ([1]; standard inducer assay) | IP factor concentration to which npi287 clearly responded ([1]; standard inducer assay, FIG. 2) | concentration above which the assay was saturated ([1]; standard inducer assay, FIG. 2) | upper concentration of linear response of antibiotic production ([1]; standard inducer assay, FIG. 2) | restoration of streptomycin production (Streptomyces griseus HH1 [2]) | stimulation of sporulation ([3]; npi287 mutant) | stimulation of sporulation ([3]; wild type Streptomyces natalensis) | production of natamycin on addition of exogenous inducer ([4]; NBG medium, FIG. 4) | production of natamycin on addition of exogenous inducer ([4]; TSB medium, FIG. 3) | production of natamycin on addition of exogenous inducer ([4]; YEME medium, FIG. 5) | part remaining in the aqueous phase ([5]; ethyl acetate extraction at acidic, neutral or slightly basic (pH 7.5) pH) | part remaining in the aqueous phase ([5]; repeated extraction with chloroform) | stimulation of sporulation (Streptomyces griseus HH1 [6])
1 | NC(CO)(CO)C(N)(CO)CO [IP factor, 2,3-diamino-2,3-bis(hydroxymethyl)-1,4-butanediol] | above 50 millimeters | two-fold | strong inducing activity | about 50 nM | 100 nM | above 400 nM | up to 350 nM | negative | did not stimulate sporulation | did not stimulate sporulation | stimulated | stimulated | stimulated | significant proportion | about 80% | –
2 | CC(C)CCCCC(=O)[C@@H]1C(=O)OCC1CO (stereo partly drawn) [A factor, 2-(6′-methylheptanoyl)-3R-hydroxymethyl-4-butanolide, reference compound] | – | – | some inducing activity; also recorded: elicited natamycin production | – | – | – | – | – | – | – | – | – | – | – | – | stimulation of sporulation
